Source: patent publication US4330527A, “Wound treatment agent” (priority 1979, dated 1982)
“Also recorded” adds a separate entry of the source.

Tests used:
NPT [1] = assay type: biochemical, Clostridium perfringens ATCC 21510
[2] = system: granulation tissue in P.V.H.-sponge; design: species or system rats (Wistar strain, male); details: rat, in vivo
epidermis (dorsal skin) = assay: Experiment 9: epidermization effect on dermatome-peeled dorsal skin; assay type: in vivo, rabbit; details: further examination
NPT [3] = assay type: biochemical, Clostridium perfringens ATCC 21510; remark: listed apart in the source
5'-nucleotidase = assay: Effects of metal ions and other chemical agents on nucleotidase activity; assay type: biochemical
epidermis = details: literature; cited from earlier work
[4] = system: collagen in P.V.H.-sponge; assay: Experiment 6: weight of collagen (hydroxyproline) in the buried sponge; assay type: in vivo, rats; details: for Hydroxyproline: n = 8; for Hydroxyproline, % of control: control = 100%

## O=c1ccn([C@H]2C[C@H](O)[C@@H](CO)O2)c(=O)[nH]1 [deoxyuridine]
NPT [1]
  action as phosphate acceptor: phosphate acceptor

## Nc1ncnc2c1ncn2[C@@H]1O[C@H](COP(=O)(O)OP(=O)(O)OP(=O)(O)O)[C@@H](O)[C@H]1O [adenosine triphosphate]
NPT [1]
  action as phosphate donor: not observed

## CN(CC(=O)O)C(=N)NP(=O)(O)O [creatine phosphate]
NPT [1]
  action as phosphate donor: not observed

## CC(=O)OCC(=O)[C@@]1(O)CC[C@H]2[C@@H]3CCC4=CC(=O)C=C[C@]4(C)[C@H]3[C@@H](O)C[C@@]21C [Prednisolone acetate]
[2]
  (1) Wet weight: 225 ± 58.9 mg
  (1)-(2) Liquid content: 167.4 ± 52.2 mg
  (2) - sponge weight, Solid content: 22.6 ± 9.6 mg
  (2) Dry weight: 57.8 ± 9.9 mg
  Dry weight, %: 91.2%
  Liquid content, %: 68.4%
  Solid content, %: 80.7%
  Wet weight, %: 73.0%
  effect on weights / newly grown granulation tissue (in words): the dry weight, wet weight, quantity of exudate and weight of newly grown granulation tissue all fall below those with the control

## [O]=[Zn] [zinc oxide]
Epidermis (dorsal skin)
  capability of epidermization (in words): synergistic effect with GF-70 to stimulate the epidermization

## Cc1cn([C@H]2C[C@H](O)[C@@H](CO)O2)c(=O)[nH]c1=O [thymidine]
NPT [1]
  action as phosphate acceptor: phosphate acceptor

## 3-phosphoglycerophosphate
NPT [1]
  action as phosphate donor: not observed

## O=c1ccn([C@@H]2O[C@H](CO)[C@@H](O)[C@H]2O)c(=O)[nH]1 [uridine]
NPT [1]
  action as phosphate acceptor: lowest activity as the phosphate acceptor

## O=C(O)c1cc[c]([Hg][Cl])cc1 [p-chloromercuribenzoic acid]
NPT [3]
  effect on NPT activity: neither of them are inhibited
5'-nucleotidase
  effect on nucleotidase activity: neither of them are inhibited

## vitamin A
epidermis
  effect on skin tissue / DNA synthesis in epidermis: stimulates synthesis of DNA in the epidermis; also recorded: affect the growth and differentiation of the skin tissue

## O=P(O)(O)OCC(O)CO (stereo not drawn) [α-glycerophosphate]
NPT [1]
  action as phosphate donor: not observed

## Nc1ccn([C@H]2C[C@H](O)[C@@H](CO)O2)c(=O)n1 [deoxycytidine]
NPT [1]
  action as phosphate acceptor: phosphate acceptor

## Nc1ccn([C@@H]2O[C@H](CO)[C@@H](O)[C@H]2O)c(=O)n1 [cytidine]
NPT [1]
  action as phosphate acceptor: phosphate acceptor

## Nc1ncnc2c1ncn2[C@H]1C[C@H](O)[C@@H](COP(=O)(O)OP(=O)(O)OP(=O)(O)O)O1 [deoxyadenosine triphosphate]
NPT [1]
  action as phosphate donor: not observed

## O=P(O)(O)OC[C@H]1OC(O)[C@H](O)[C@@H](O)[C@@H]1O (some centres unmarked) [glucose-6-phosphate]
NPT [1]
  action as phosphate donor: not observed

B1: Albumin: egg albumin as the control (protein, UniProt P01012 2-386, looked up)
Ovalbumin: GSIGAASMEFCFDVFKELKVHHANENIFYCPIAIMSALAMVYLGAKDSTRTQINKVVRFDKLPGFGDSIEAQCGTSVNVHSSLRDILNQITKPNDVYSFSLASRLYAEERYPILPEYLQCVKELYRGGLEPINFQTAADQARELINSWVESQTNGIIRNVLQPSSVDSQTAMVLVNAIVFKGLWEKAFKDEDTQAMPFRVTEQESKPVQMMYQIGLFRVASMASEKMKILELPFASGTMSMLVLLPDEVSGLEQLESIINFEKLTEWTSSNVMEERKIKVYLPRMKMEEKYNLTSVLMAMGITDVFSSSANLSGISSAESLKISQAVHAAHAEINEAGREVVGSAEAGVDAASVSEEFRADHPFLFCIKHIATNAVLFFGRCVSP
[4]; 4th and 7th days, vs control
  weight of collagen (in words): no significant difference
[4]; 4 days after burying
  Hydroxyproline: 132.3 ± 18.0 μg/sponge
  Hydroxyproline, % of control: 105%
[4]; 7 days after burying
  Hydroxyproline: 331.7 ± 18.8 μg/sponge
  Hydroxyproline, % of control: 146%
